Patent US20100003217A1, “Compounds and Pharmaceutical Compositions for the Treatment of Viral Infections” (priority 2008, published 2010)

How the values were obtained:
[1] = system: HCV genotype 1b replicon (GS4.1 cells); test: HCV replicon assay (NS4A ELISA); type: cell-based, hepatitis C virus; conditions: 3 days
Description: The biological activity of Compound 1, diastereomer 1 and diastereomer 2 was measured by monitoring expression of the NS4A protein by enzyme-linked immunosorbent assay (ELISA) and by luciferase assay as described below:
The HCV replicon assay measures the ability of a test compound to inhibit HCV replication in cell culture after 3 days of treatment in a human hepatoma cell line (Huh-7) bearing the HCV genotype 1b replicon (GS4.1 cells). The inhibition of HCV replication was measured by quantification of viral NS4A protein using an enzyme-linked immunosorbent assay (ELISA). […] Additionally, the replicon contains the neomycin phosphotransferase gene under the control of the HCV promoter (Source: Dr. Christoph Seeger, Fox Chase Cancer Center, Philadelphia, Pa.).
The NS4A ELISA assay is summarized as follows. Ninety-six-well tissue culture plates were seeded with GS4.1 cells. Antiviral compound solutions were made up freshly in medium as 2×-concentrated stocks. Eight additional 3-fold drug dilutions were prepared from these stocks in medium for a total of 9 dilutions. At least four hours after GS4.1 cells were seeded, drug treatment was initiated by adding one volume of each 2× concentrated drug dilution to one volume of cells/medium in the tissue culture plates. Cells were then incubated for 3 days at 37° C./5% CO2.
The media/compound was then removed from the plates and cells were fixed with acetone:methanol, washed three times with a wash solution, and then blocked for 1 hour with 10% fetal bovine serum in a balanced salt solution. Cells were washed three times and incubated with an anti-hepatitis C NS4A monoclonal antibody (Virogen Corp.) for 2 hours at 37° C. […] The reaction was stopped with diluted sulfuric acid (Mallinckrodt Chemicals) and absorbance measured on a Victor^3V 1420 multilabel counter (Perkin Elmer). EC50 values were calculated from dose response curves from the resulting best-fit equations determined by Microsoft Excel and XLfit 4.1 software.

[2] = system: HCV genotype 1b replicon (Zluc cells); test: HCV luciferase replicon assay; type: cell-based, hepatitis C virus; conditions: 3 days
Description: The HCV luciferase replicon assay measures the ability of a test compound to inhibit HCV replication in cell culture after 3 days of treatment in a human hepatoma cell line (Huh-7) bearing the HCV genotype 1b replicon and a luciferase-neomycin phosphotransferase fusion gene. The inhibition of HCV replication was measured by quantification of luciferase protein expression. The HCV luciferase replicon was constructed by fusing a luciferase gene to the amino terminus of the neomycin phosphotransferase gene of the ZS11 HCV replicon. The ZS11 HCV replicon (Zhu Q, Guo J-T, and Seeger C, 2003) is derived from the SP1 replicon, but contains three cell culture-adapted mutations: E1202G (NS3), S22041 (NS5A), and D2254E (NS5A). These mutations allow for efficient in vitro replication. The luciferase reporter gene was amplified from the pGL4.13[luc2/SV40] vector (Promega Corp.). The replicon resulting from the luciferase-neomycin fusion (ZS11-luc) was stably-transfected into Huh-7 cells, yielding the Zluc cell line.
The luciferase replicon assay is summarized as follows: Solid white 96-well tissue culture plates (BD Falcon) were seeded with Zluc cells. Antiviral compound solutions were made up freshly in medium as 2×-concentrated stocks. Eight additional 3-fold drug dilutions were prepared from these stocks in medium for a total of 9 dilutions. At least four hours after Zluc cells were seeded, drug treatment was initiated by adding one volume of each 2×-concentrated drug dilution to one volume of cells/medium in the tissue culture plates. Cells were then incubated for 3 days at 37° C./5% CO2.
The media/compound was then removed from the plates and the ONE-glo Luciferase assay reagent (Promega) was added to each well. The assay plates were shaken for 3 minutes at room temperature and luciferase activity for each well was measured with a 1 sec read time on the Victor^3V multilabel counter using a 700 nm cut-off filter (Perkin Elmer). EC50 values were calculated from dose response curves from the resulting best-fit equations determined by Microsoft Excel and XLfit 4.1 software.

GS4.1 cells = test: Cytotoxicity assay (MTS), GS4.1 cells; type: cell-based, human; conditions: 3 days (NS4A-ELISA Assay)
Description: The cytotoxicity assay measures the viability of cells after treatment with a test compound for 3 days in either GS4.1 cells or Zluc cells. […] The cytotoxicity assay is summarized as follows. Ninety-six-well tissue culture plates were seeded with GS4.1 or Zluc cells. Antiviral compound solutions were made up freshly in medium as 2×-concentrated stocks. Eight additional 3-fold drug dilutions were prepared from these stocks in medium for a total of 9 dilutions. At least four hours after the cells were seeded, drug treatment was initiated by adding one volume of each 2×-concentrated drug dilution to one volume of cells/medium in the tissue culture plates. Cells were then incubated for 3 days at 37° C./5% CO2. After 3 days of treatment, the CellTiter 96® Aqueous One Solution cell proliferation assay (Promega) was performed by adding the MTS solution to each well. The plates were then incubated at 37° C./5% CO2 for 3.5 hours. Plates were then read in a Victor^3V 1420 multilabel counter (Perkin Elmer) and CC50 concentrations were determined using Microsoft Excel and XLfit 4.1 software.

[3] = Stability in rat liver microsomes; type: in vitro ADME; conditions: rat microsomes 1 mg/mL, 60 min, 50 μM
Description: (§1) Disappearance of parent Compound 1 was used to evaluate the in vitro metabolism thereof. Relative levels of unchanged Compound 1 were measured by HPLC-UV method 1. Residual Compound 1 is reported as percent difference from time zero or control. The HPLC-UV system was as follows:
(§2) Incubations with liver microsomes or cytosol were conducted in a final volume of 0.1 mL per incubation time point. […] DMSO (final DMSO concentration was 0.1%) was incubated at 37° C. from 0-60 min with pooled microsomal protein (1.0 mg/mL), suspended in incubation buffer (0.1 M potassium phosphate, pH 7.4, 5 mM MgCl2, and 0.1 mM EDTA). The microsomal reaction was initiated by the addition of NADPH (3 mM final concentration). Incubations with (a) no protein or (b) no NADPH served as controls. Reactions were terminated by the addition of 0.2 mL of stop solution (acetonitrile). The samples were vortex-mixed for 30 sec and then centrifuged at 10,000×g for 10 min. The supernatant was dried using a Labconco CentriVap concentrator and the dry residue reconstituted in water, transferred to an HPLC glass vial and analyzed by HPLC-UV method 1 (described above).
(§3) Metabolic stability of the proposed metabolites was conducted by incubating the chemically synthesized standards Compound 2, Compound 4 and Compound 3 as described above for Compound 1. When possible, formation of Compound 5 was verified by incubating samples with alkaline phosphatase (10 U) for 60 min at 37° C.

[4] = Stability in monkey liver microsomes; type: in vitro ADME; conditions: monkey microsomes 1 mg/mL, 60 min, 50 μM
Description: as §1, §2, §3

[5] = Stability in human liver microsomes; type: in vitro ADME; conditions: human microsomes 1 mg/mL, 60 min, 50 μM
Description: as §1
Incubations with liver microsomes or cytosol were conducted in a final volume of 0.1 mL per incubation time point. […] The microsomal reaction was initiated by the addition of NADPH (3 mM final concentration). Incubations with (a) no protein or (b) no NADPH served as controls. Reactions were terminated by the addition of 0.2 mL of stop solution (acetonitrile). The samples were vortex-mixed for 30 sec and then centrifuged at 10,000×g for 10 min. The supernatant was dried using a Labconco CentriVap concentrator and the dry residue reconstituted in water, transferred to an HPLC glass vial and analyzed by HPLC-UV method 1 (described above).
as §3

[6] = Incubation with rat liver cytosol; type: in vitro ADME; conditions: rat cytosol 1 mg/mL, 2 hours, 10 μM
Description: (§4) Pooled liver cytosol (1.0 mg protein/mL) suspended in incubation buffer (0.1 M potassium phosphate, pH 7.4) was incubated for 2 hours at 37° C. with 10 μM Compound 1 from a stock solution in DMSO (final DMSO concentration was 0.1%); reaction was initiated with the addition of test article. Incubations with no protein served as control. Reactions were terminated by the addition of 0.1 mL of stop solution (acetonitrile). The samples were vortex-mixed for 30 sec and then centrifuged at 10,000×g for 10 min. The supernatant was dried using a Labconco CentriVap concentrator and the dry residue reconstituted in water, transferred to an HPLC glass vial and analyzed by HPLC-UV method 2 (described above).
as §3

[7] = Incubation with monkey liver cytosol; type: in vitro ADME; conditions: monkey cytosol 1 mg/mL, 2 hours, 10 μM
Description: as §4, §3

[8] = Incubation with human liver cytosol; type: in vitro ADME; conditions: human cytosol 1 mg/mL, 2 hours, 10 μM
Description: as §4, §3

pig liver esterase = test: Incubation with pig liver esterase; type: in vitro ADME; conditions: Esterase 14 U, 60 min, 10 μM
Description: as §4, with “Pig” for “Pooled”, “esterase (14 U)” for “cytosol (1.0 mg protein/mL)”, “60 min” for “2 hours”, “controls.” for “control.”
as §3

## CC(C)(CO)C(=O)SCCOP(=O)(NCc1ccccc1)OC[C@H]1O[C@@H](n2cnc3c(=O)[nH]c(N)nc32)[C@](C)(O)[C@@H]1O (single isomer, unassigned; diastereomer 1) [Diastereomer 1]
[1]
  EC50: 0.704 ± 0.372 µM
[2]
  EC50: 0.165 ± 0.023 µM
GS4.1 cells
  CC50: > 100 µM

## C[C@@]1(O)[C@H](O)[C@@H](COP(N)(=O)O)O[C@H]1n1cnc2c(=O)[nH]c(N)nc21 [Compound 4, {9-[(2R)2-C-methyl-β-D-ribo-furanosyl]-guanin}-5′-yl phosphoramidate]
[3]; NADPH
  % Residual compound following incubation with liver microsomes: 89%
[3]; No Cofactor
  % Residual compound following incubation with liver microsomes: 100%
[4]; NADPH
  % Residual compound following incubation with liver microsomes: 83%
[4]; No Cofactor
  % Residual compound following incubation with liver microsomes: 100%
[5]; NADPH
  % Residual compound following incubation with liver microsomes: 93%
[5]; No Cofactor
  % Residual compound following incubation with liver microsomes: 100%
[6]
  Residual compound following incubation with liver cytosol: 101%
[7]
  Residual compound following incubation with liver cytosol: 103%
[8]
  Residual compound following incubation with liver cytosol: 100%
Pig liver esterase
  Residual compound following incubation with pig liver esterase: 100%
